Measured values taken from publication PMC7539012, “Hyperphosphorylated tau aggregation and cytotoxicity modulators screen identified prescription drugs linked to Alzheimer's disease and cognitive functions” (Scientific Reports, 2020).
Where a name gives a salt, the structure may show the parent alone.

Each molecule was assayed on T1, 1N4R p-tau (assay: p-tau aggregation modulator screen of 1280-compound library (ThS fluorescence net change over 16 h)). Conditions: not given.
T1 construct: made in house; host or cells: E. coli (PIMAX system)
Format: biochemical
Set-up: key to PTAI>2SD: *: PTAI>2SD

Row | Structure (SMILES) | ThS net change
1 | COc1ccc(CCN)cc1OC.Cl [Homoveratrylamine] | 439
2 | CN1[C@@H]2CC[C@H]1C[C@@H](OC(=O)[C@H](CO)c1ccccc1)C2 [Hyoscyamine (L)] | 434
3 | O=C(NCNC(=O)NC1C(=O)NC(=O)N1CO)NC1C(=O)NC(=O)N1CO (stereo not drawn) [Imidurea] | 463
4 | CN(C)CCCN1c2ccccc2CCc2ccccc21 [Imipramine hydrochloride] | 287
5 | CC(C)(C)NC(=O)[C@@H]1CN(Cc2cccnc2)CCN1C[C@@H](O)C[C@@H](Cc1ccccc1)C(=O)N[C@H]1c2ccccc2C[C@H]1O [Indinavir sulfate] | 457
6 | CCc1c2c(nc3ccc(OC(=O)N4CCC(N5CCCCC5)CC4)cc13)-c1cc3c(c(=O)n1C2)COC(=O)[C@]3(O)CC.Cl.O.O.O [Irinotecan hydrochloride trihydrate] | 281
7 | O=[N+]([O-])O[C@@H]1CO[C@H]2[C@@H]1OC[C@@H]2O [Isosorbide mononitrate] | 477
8 | CC[C@H](C)[C@H]1O[C@]2(CC[C@@H]1C)C[C@@H]1C[C@@H](C/C=C(\C)[C@@H](O[C@H]3C[C@H](OC)[C@@H](O[C@H]4C[C@H](OC)[C@@H](O)[C@H](C)O4)[C@H](C)O3)[C@@H](C)/C=C/C=C3\CO[C@@H]4[C@H](O)C(C)=C[C@@H](C(=O)O1)[C@]34O)O2 [Ivermectin] | 543

Same assay, conditions: 1280-compound library screen; ThS fluorescence net change over 16 h

Row | Structure (SMILES) | ThS net change
9 | CC(CNC1CCCCC1)OC(=O)c1ccccc1 (stereo not drawn) [Hexylcaine hydrochloride] | 393
10 | NS(=O)(=O)c1cc2c(cc1Cl)NCNS2(=O)=O [Hydrochlorothiazide] | 384
11 | C[C@]12CCC(=O)C=C1CC[C@@H]1[C@@H]2[C@@H](O)C[C@@]2(C)[C@H]1CC[C@]2(O)C(=O)CO [Hydrocortisone base] | 398
12 | CCN(CCO)CCCC(C)Nc1ccnc2cc(Cl)ccc12 (stereo not drawn) [Hydroxychloroquine sulfate] | 380
13 | c1ccc2c(c1)OCC(C1=NCCN1)O2 (stereo not drawn) [Idazoxan hydrochloride] | 386
14 | Cc1ccc(NC(=O)c2ccc(CN3CCN(C)CC3)cc2)cc1Nc1nccc(-c2cccnc2)n1 [Imatinib] | 409
15 | C[C@@H](O)[C@H]1C(=O)N2C(C(=O)O)=C(SCCN=CN)C[C@H]12 [Imipenem] | 385
16 | COc1ccc2c(c1)c(CC(=O)O)c(C)n2C(=O)c1ccc(Cl)cc1 [Indomethacin] | 386
17 | N=C(N)NCc1cccc(I)c1.O=S(=O)(O)O [Iobenguane sulfate] | 411
18 | O=C(NCC(O)CO)c1c(I)c(C(=O)NCC(O)CO)c(I)c(N(CCO)C(=O)CO)c1I (stereo not drawn) [Ioversol] | 409
19 | CC(C)NNC(=O)c1ccncc1.O=P(O)(O)O [Iproniazide phosphate] | 401
20 | Cc1cc(C(=O)NNCc2ccccc2)no1 [Isocarboxazid] | 400
21 | CC(=O)OCC(=O)[C@@]1(O)CC[C@H]2[C@@H]3CCC4=CC(=O)C=C[C@]4(C)[C@@]3(F)[C@@H](O)C[C@@]21C [Isoflupredone acetate] | 388
22 | NNC(=O)c1ccncc1 [Isoniazid] | 404
23 | CC(C)[N+](C)(CCC(C(N)=O)(c1ccccc1)c1ccccc1)C(C)C [Isopropamide iodide] | 395
24 | Cc1c(NC(C)C)c(=O)n(-c2ccccc2)n1C.Cl [Isopyrin hydrochloride] | 380
25 | CC1=C(/C=C/C(C)=C/C=C/C(C)=C\C(=O)O)C(C)(C)CCC1 [Isotretinoin] | 389
26 | COc1ccc(C(=O)NCc2ccc(OCCN(C)C)cc2)cc1OC [Itopride] | 405
27 | O=C(c1ccccc1)c1ccc2n1CCC2C(=O)O (stereo not drawn) [Ketorolac tromethamine] | 382
28 | COc1c2occc2c(OC)c2c(=O)cc(C)oc12 [Khellin] | 389

Same assay, conditions: 1280-compound library screen; […]

Row | Structure (SMILES) | ThS net change
29 | CCCCCN(C)CCC(O)(P(=O)([O-])O)P(=O)(O)O.[Na+] [Ibandronate sodium] | 394
30 | CN[C@@H]1C[C@@H](c2ccc(Cl)c(Cl)c2)c2ccccc21 [Indatraline hydrochloride] | 388
31 | O=[N+]([O-])O[C@H]1CO[C@H]2[C@@H]1OC[C@H]2O[N+](=O)[O-] [Isosorbide dinitrate] | 405

Same assay, conditions: flag: p-tau aggregation inhibitor, ThS net change more than 2 SD from mean

Row | Structure (SMILES) | PTAI>2SD
32 | CCN(CC)CCNc1ccc(CO)c2sc3ccccc3c(=O)c12 [Hycanthone] | *

Same assay, conditions: library screen, ThS fluorescence net change over 16 h with p-tau

Row | Structure (SMILES) | ThS net change
33 | CC1CC(OC(=O)c2ccccc2O)CC(C)(C)C1 (stereo not drawn) [Homosalate] | 279
34 | CCN(CC)CCNc1ccc(CO)c2sc3ccccc3c(=O)c12 [Hycanthone] | 171
35 | OCCOCCN1CCN(C(c2ccccc2)c2ccc(Cl)cc2)CC1 (stereo not drawn) [Hydroxyzine dihydrochloride] | 309
36 | Nc1nc(N)nc(-c2cc(Cl)ccc2Cl)n1 [Irsogladine maleate] | 308
37 | Clc1ccc(C(Cn2ccnc2)OCc2c(Cl)cccc2Cl)c(Cl)c1 (stereo not drawn) [Isoconazole] | 296
38 | CCC(NC(C)C)C(O)c1ccc(O)c(O)c1.CS(=O)(=O)O (stereo not drawn) [Isoetharine mesylate salt] | 313

Same assay, conditions: p-tau aggregation modulator screen of 1280-compound library; ThS fluorescence net change

Row | Structure (SMILES) | ThS net change
39 | CCCCC(CC)CN1CN(CC(CC)CCCC)CC(C)(N)C1 (stereo not drawn) [Hexetidine] | 353
40 | Cc1cc(=O)oc2cc(O)ccc12 [Hymecromone] | 357
41 | CCCCCCCN(CC)CCCC(O)c1ccc(NS(C)(=O)=O)cc1.CCCCCCCN(CC)CCCC(O)c1ccc(NS(C)(=O)=O)cc1.O=C(O)/C=C/C(=O)O (stereo not drawn) [Ibutilide fumarate] | 330
42 | O=c1[nH]c(=O)n([C@H]2C[C@H](O)[C@@H](CO)O2)cc1I [Idoxuridine] | 359
43 | CC(C(O)c1ccc(O)cc1)N1CCC(Cc2ccccc2)CC1.O=C(O)C(O)C(O)C(=O)O (stereo not drawn) [Ifenprodil tartrate] | 361
44 | CC1Cc2ccccc2N1NC(=O)c1ccc(Cl)c(S(N)(=O)=O)c1 (stereo not drawn) [Indapamide] | 347
45 | CC(C(=O)O)c1ccc(N2Cc3ccccc3C2=O)cc1 (stereo not drawn) [Indoprofen] | 364
46 | CC(=O)N(CC(C)C(=O)O)c1c(I)cc(I)c(N)c1I (stereo not drawn) [Iocetamic acid] | 365
47 | CC(=O)N(CC(O)CO)c1c(I)c(C(=O)NCC(O)CO)c(I)c(C(=O)NCC(O)CO)c1I (stereo not drawn) [Iohexol] | 345
48 | C[C@H](O)C(=O)Nc1c(I)c(C(=O)NC(CO)CO)c(I)c(C(=O)NC(CO)CO)c1I [Iopamidol] | 369
49 | COCC(=O)Nc1c(I)c(C(=O)NCC(O)CO)c(I)c(C(=O)N(C)CC(O)CO)c1I (stereo not drawn) [Iopromide] | 359
50 | O=C1c2ccccc2S(=O)(=O)N1CCCCN1CCN(c2ncccn2)CC1 [Ipsapirone] | 374
51 | Cc1cc(NC(=O)C2=C(O)c3ccccc3S(=O)(=O)N2C)no1 [Isoxicam] | 364
52 | CC(COc1ccccc1)NC(C)C(O)c1ccc(O)cc1 (stereo not drawn) [Isoxsuprine hydrochloride] | 347
53 | COC(=O)C1=C(C)NC(C)=C(C(=O)OC(C)C)C1c1cccc2nonc12 (stereo not drawn) [Isradipine] | 372
54 | NC[C@H]1O[C@H](O[C@H]2[C@H](O)[C@@H](O[C@H]3O[C@H](CO)[C@@H](O)[C@H](N)[C@H]3O)[C@H](N)C[C@@H]2N)[C@H](O)[C@@H](O)[C@@H]1O [Kanamycin A sulfate] | 374
55 | CC(=O)N1CCN(c2ccc(OCC3COC(Cn4ccnc4)(c4ccc(Cl)cc4Cl)O3)cc2)CC1 (stereo not drawn) [Ketoconazole] | 350
56 | CC(C(=O)O)c1cccc(C(=O)c2ccccc2)c1 (stereo not drawn) [Ketoprofen] | 376
57 | CN1CCC(=C2c3ccccc3CC(=O)c3sccc32)CC1 [Ketotifen fumarate] | 366

Same assay, conditions: p-tau aggregation modulator screen of 1280-compound library; […]

Row | Structure (SMILES) | ThS net change
58 | C[N+](C)(C)CCCCCC[N+](C)(C)C.O.O.[Br-].[Br-] [Hexamethonium dibromide dihydrate] | 342
59 | Br.CN1[C@@H]2CC[C@H]1C[C@@H](OC(=O)C(O)c1ccccc1)C2 (stereo partly drawn) [Homatropine hydrobromide (R,S)] | 332
60 | CN1CCCN(C(c2ccccc2)c2ccc(Cl)cc2)CC1.Cl.Cl (stereo not drawn) [Homochlorcyclizine dihydrochloride] | 343
61 | O=P1(NCCCl)OCCCN1CCCl (stereo not drawn) [Ifosfamide] | 374
62 | CC(=O)N(CC(O)CN(C(C)=O)c1c(I)c(C(=O)NCC(O)CO)c(I)c(C(=O)NCC(O)CO)c1I)c1c(I)c(C(=O)NCC(O)CO)c(I)c(C(=O)NCC(O)CO)c1I (stereo not drawn) [Iodixanol] | 338
63 | O.O=C(O)C(O)C(O)C(=O)O.O=C(c1ccc(F)cc1)C1CCN(CCn2c(=O)[nH]c3ccccc3c2=O)CC1 [Ketanserin tartrate hydrate] | 354
64 | Cl.O[C@@H]1CCCC[C@H]1N1CCC(c2ccccc2)CC1 [L(-)-vesamicol hydrochloride] | 360

Same assay, conditions: p-tau aggregation modulator screen of the compound library, ThS fluorescence net change

Row | Structure (SMILES) | ThS net change
65 | CC[C@H](c1ccc(O)cc1)[C@@H](CC)c1ccc(O)cc1 [Hexestrol] | 435
66 | NCCc1c[nH]cn1 [Histamine dihydrochloride] | 438
67 | NS(=O)(=O)c1cc2c(cc1C(F)(F)F)NCNS2(=O)=O [Hydroflumethiazide] | 425
68 | CC(C)C(=O)c1c(C(C)C)nn2ccccc12 [Ibudilast] | 444
69 | CC(C)Cn1cnc2c(N)nc3ccccc3c21 [Imiquimod] | 439
70 | O=C(CCCCC(=O)Nc1c(I)cc(I)c(C(=O)O)c1I)Nc1c(I)cc(I)c(C(=O)O)c1I [Iodipamide] | 421
71 | CCC(Cc1c(I)cc(I)c(N)c1I)C(=O)O (stereo not drawn) [Iopanoic acid] | 464
72 | CNC(=O)c1c(I)c(C(=O)NCC(=O)Nc2c(I)c(C(=O)O)c(I)c(C(=O)NCCO)c2I)c(I)c(N(C)C(C)=O)c1I [Ioxaglic acid] | 442
73 | CC(C)Oc1ccc2c(=O)c(-c3ccccc3)coc2c1 [Ipriflavone] | 429
74 | CCCCC1=NC2(CCCC2)C(=O)N1Cc1ccc(-c2ccccc2-c2nnn[nH]2)cc1 [Irbesartan] | 454
75 | CNC(C)CCC=C(C)C.CNC(C)CCC=C(C)C.O=C(O)C(O)C(O)C(O)C(O)C(=O)O (stereo not drawn) [Isometheptene mucate] | 481
